Data set [1] can be described thus: LogD determination, shake flask method (n-octanol/PBS). It counts as physicochemical. The following applies: shake-flask n-octanol/PBS pH 7.4 (1:1, 1 mL, pre-saturated); 10 µL (1 µM) radiolabeled peptide; vortexed 1 min, centrifuged 3,000 rpm 10 min; gamma counter read-out; 2-3 experiments each in quintets, mean ± SD. As for the experimental part:
The hydrophilicity of the radiolabeled peptides 12–16 was evaluated by determination of their partition coefficient between n-octanol and phosphate buffered saline (PBS, pH 7.4) using the shake flask method. In brief, 10 µL (1 µM) of radiolabeled peptides 12–16 were added to a pre-saturated solution of n-octanol and PBS (1:1, 1 mL) and the tubes were vortexed (1 min) and centrifuged (3,000 rpm, 10 min). Aliquots of 100 µL of each phase were radiometrically measured in a gamma counter and the logD values were calculated by the logarithm of the ratio between the radioactive counts in the octanol fraction and the radioactive counts in the PBS fraction. The experiment was performed 2–3 times, each in quintets, and results are reported by mean values ± standard deviation (SD).

Data set [2] has as its system GRP-r overexpressing PC-3 cells. The data set can be described thus: Internalization assay in PC-3 cells. The data set is classed as cell-based, human. Conditions: 0.25 pmol, 1.5-2.0 kBq/well, within 30-60 min, percentage of applied dose normalized to 10^6 cells, n = 2-3 in triplicates, approximate. As for the experimental part:
Cell culturing of human prostate adenocarcinoma (PC-3) cells and in vitro assays (internalization, receptor saturation binding, and externalization) were performed as previously described and are thus described only in brief.
For the determination of cellular uptake, PC-3 cells were incubated with the radiolabeled peptides [^99mTc(CO)3(L)] (L = 14–16; 0.25 pmol; 1.5–2.0 kBq/well) for different time points to allow binding and internalization. Non-specific receptor binding and internalization was determined by incubating the cells with excess of natural bombesin(1–14) as a receptor blocking agent. At each time point, the supernatant was collected, representing the free radiopeptide fraction. The cell surface receptor bound fraction was obtained by treating the cells with an acidic saline glycine buffer (100 mM NaCl, 50 mM glycine, pH 2.8; 2 times for 5 min, on ice). The internalized fraction was determined by cell lysis with 1 M NaOH (10 min). Fractions of free, receptor-bound, and internalized radiopeptide were radiometrically measured in the gamma counter and calculated as percentage of applied dose normalized to 10^6 cells for all time points (n = 2–3 in triplicates, reported by means ± SD). […]

The target in data set [3] is Hsp90. Conditions: reported high affinity; read-out: affinity towards Hsp90; cited from earlier work.

logD, applied radioactivity internalized and Kd data for 2 compounds are collected here from publication PMC4078514, “A Bombesin-Shepherdin Radioconjugate Designed for Combined Extra- and Intracellular Targeting” (Pharmaceuticals, 2014).

The logD is the decadic logarithm of the distribution of all forms, ionised or not, between an organic phase and buffer at a given pH. For the compound `CCCC[C@H](NC(=O)[C@H](CC(C)C)NC(=O)[C@H](Cc1c[nH]cn1)NC(=O)CNC(=O)[C@@H](NC(=O)[C@H](C)NC(=O)[C@H](Cc1c[nH]c2ccccc12)NC(=O)[C@H](CCC(N)=O)NC(=O)CCNC(=O)CCNC(=O)CCNC(=O)Cn1cc(CN[C@@H](CCCCNC(C)=O)C(=O)O)nn1)C(C)C)C(N)=O` [[^99mTc(CO)3(16)], metal not drawn], the pH-dependent lipophilicity (logD) in data set [1] is -0.44 ± 0.07. Also, the applied radioactivity internalized in data set [2] was 25%–30%. As to KHSSG [shepherdin(79–83)], the Kd in data set [3] was 80 nM.
